Laboratory results from PubChem BioAssay AID2060904 (Molecular Pharmacology Branch, DTP, NCI, 2025).
Where “and” joins values, the source holds several entries; their conditions need not be identical. Equal entries are not always repeated. Each block holds one molecule with its values, some of them ahead of it.

Test system: 349418-098-R-PDC complex spheroid viability
Test: Anticancer human tumor 349418-098-R-PDC patient-derived lung adenocarcinoma cell line growth inhibition [RAS]
Settings: for viability, T/C: stronger effect = lower value
How it was run: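 Agents were tested in combination matrices in half-log decrements from a top concentration at or near clinical Cmax (10 microM if undetermined). Targets were multi-cell spheroids of tumour lines plus HUVEC and MSC stromal cells.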

[1] = curve of first compound, second compound 0.00316 µM
[2] = curve of first compound, second compound 0.01 µM
[3] = curve of first compound, second compound 0.0316 µM
[4] = curve of first compound, second compound 0.1 µM
[5] = curve of first compound, second compound 0.316 µM
[6] = curve of first compound, second compound 1 µM
[7] = second compound 0.00316 µM, first compound 0.0316 µM
[8] = second compound 0.00316 µM, first compound 0.1 µM
[9] = second compound 0.00316 µM, first compound 0.316 µM
[10] = second compound 0.00316 µM, first compound 1 µM
[11] = second compound 0.01 µM, first compound 0.0316 µM
[12] = second compound 0.01 µM, first compound 0.1 µM
[13] = second compound 0.01 µM, first compound 0.316 µM
[14] = second compound 0.01 µM, first compound 1 µM
[15] = second compound 0.0316 µM, first compound 0.0316 µM
[16] = second compound 0.0316 µM, first compound 0.1 µM
[17] = second compound 0.0316 µM, first compound 0.316 µM
[18] = second compound 0.0316 µM, first compound 1 µM
[19] = second compound 0.1 µM, first compound 0.0316 µM
[20] = second compound 0.1 µM, first compound 0.1 µM
[21] = second compound 0.1 µM, first compound 0.316 µM
[22] = second compound 0.1 µM, first compound 1 µM
[23] = second compound 0.316 µM, first compound 0.0316 µM
[24] = second compound 0.316 µM, first compound 0.1 µM
[25] = second compound 0.316 µM, first compound 0.316 µM
[26] = second compound 0.316 µM, first compound 1 µM
[27] = second compound 1 µM, first compound 0.0316 µM
[28] = second compound 1 µM, first compound 0.1 µM
[29] = second compound 1 µM, first compound 0.316 µM
[30] = second compound 1 µM, first compound 1 µM
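Further: spheroids exposed to compound for seven days before viability readout.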

Compound: CCn1c(-c2cccnc2C(C)OC)c2c3cc(ccc31)N1CCOC(CC(NC(=O)C(C(C)C)N(C)C(=O)C3(F)CCN(C(=O)C#CC(C)(C)N(C)C)CC3)C(=O)N3CCCC(N3)C(=O)OCC(C)(C)C2)C1 (stereo not drawn)
- viability, T/C (compound 0.003 µM): 111% [middle of 8 runs]
- IC50 (compound alone, run of 05/20/2024): > 300 nM

Compound: CCc1c2c(nc3ccc(O)cc13)-c1cc3c(c(=O)n1C2)COC(=O)[C@]3(O)CC + C=CC(=O)N1CCN(c2nc(OCC3CCCN3C)nc3c(F)c(-c4nc(N)cc(C)c4C(F)(F)F)c(Cl)cc23)C(C)C1
- IC50 [1]: 0.951 nM
- IC50 [2]: 1.8 nM
- IC50 [3]: 1.75 nM
- IC50 [4]: 0.985 nM
- IC50 [5]: 1.2 nM
- IC50 [6]: 1.69 nM
- viability, T/C (second compound 0.00316 µM, first compound 0.000949 µM): 50%
- viability, T/C (second compound 0.00316 µM, first compound 0.003 µM): 28.8%
- viability, T/C (second compound 0.00316 µM, first compound 0.00949 µM): 6.39%
- viability, T/C (second compound 0.00316 µM, first compound 0.03 µM): 4.43%
- viability, T/C (second compound 0.00316 µM, first compound 0.0949 µM): 3.41%
- viability, T/C (second compound 0.00316 µM, first compound 0.3 µM): 2.43%
- viability, T/C (second compound 0.01 µM, first compound 0.000949 µM): 69.1%
- viability, T/C (second compound 0.01 µM, first compound 0.003 µM): 35%
- viability, T/C (second compound 0.01 µM, first compound 0.00949 µM): 7.67%
- viability, T/C (second compound 0.01 µM, first compound 0.03 µM): 4.23%
- viability, T/C (second compound 0.01 µM, first compound 0.0949 µM): 2.64%
- viability, T/C (second compound 0.01 µM, first compound 0.3 µM): 1.87%
- viability, T/C (second compound 0.0316 µM, first compound 0.000949 µM): 70.9%
- viability, T/C (second compound 0.0316 µM, first compound 0.003 µM): 31.7%
- viability, T/C (second compound 0.0316 µM, first compound 0.00949 µM): 11.7%
- viability, T/C (second compound 0.0316 µM, first compound 0.03 µM): 4.13%
- viability, T/C (second compound 0.0316 µM, first compound 0.0949 µM): 2.62%
- viability, T/C (second compound 0.0316 µM, first compound 0.3 µM): 2.07%
- viability, T/C (second compound 0.1 µM, first compound 0.000949 µM): 50.8%
- viability, T/C (second compound 0.1 µM, first compound 0.003 µM): 27.1%
- viability, T/C (second compound 0.1 µM, first compound 0.00949 µM): 10.5%
- viability, T/C (second compound 0.1 µM, first compound 0.03 µM): 4.6%
- viability, T/C (second compound 0.1 µM, first compound 0.0949 µM): 3.02%
- viability, T/C (second compound 0.1 µM, first compound 0.3 µM): 2.05%
- viability, T/C (second compound 0.316 µM, first compound 0.000949 µM): 57.2%
- viability, T/C (second compound 0.316 µM, first compound 0.003 µM): 21.9%
- viability, T/C (second compound 0.316 µM, first compound 0.00949 µM): 7.59%
- viability, T/C (second compound 0.316 µM, first compound 0.03 µM): 4.71%
- viability, T/C (second compound 0.316 µM, first compound 0.0949 µM): 2.92%
- viability, T/C (second compound 0.316 µM, first compound 0.3 µM): 1.94%
- viability, T/C (second compound 1 µM, first compound 0.000949 µM): 73.1%
- viability, T/C (second compound 1 µM, first compound 0.003 µM): 26.9%
- viability, T/C (second compound 1 µM, first compound 0.00949 µM): 9.24%
- viability, T/C (second compound 1 µM, first compound 0.03 µM): 5.15%
- viability, T/C (second compound 1 µM, first compound 0.0949 µM): 3.55%
- viability, T/C (second compound 1 µM, first compound 0.3 µM): 2.46%

Compound: C=CC(=O)Nc1cc(Nc2nccc(-c3cn(C)c4ccccc34)n2)c(OC)cc1N(C)CCN(C)C + C=CC(=O)N1CCN(c2nc(OCC3CCCN3C)nc3c(F)c(-c4nc(N)cc(C)c4C(F)(F)F)c(Cl)cc23)C(C)C1
- IC50 [1]: > 1000 nM
- IC50 [2]: > 1000 nM
- IC50 [3]: > 1000 nM
- IC50 [4]: > 1000 nM
- IC50 [5]: > 1000 nM
- IC50 [6]: > 1000 nM
- viability, T/C (second compound 0.00316 µM, first compound 0.00316 µM): 80.7%
- viability, T/C (second compound 0.00316 µM, first compound 0.01 µM): 119%
- viability, T/C [7]: 91.5%
- viability, T/C [8]: 69.9%
- viability, T/C [9]: 64.8%
- viability, T/C [10]: 72.9%
- viability, T/C (second compound 0.01 µM, first compound 0.00316 µM): 83.7%
- viability, T/C (second compound 0.01 µM, first compound 0.01 µM): 97.5%
- viability, T/C [11]: 90.5%
- viability, T/C [12]: 71.8%
- viability, T/C [13]: 61.3%
- viability, T/C [14]: 56.6%
- viability, T/C (second compound 0.0316 µM, first compound 0.00316 µM): 86.6%
- viability, T/C (second compound 0.0316 µM, first compound 0.01 µM): 129%
- viability, T/C [15]: 86.1%
- viability, T/C [16]: 96%
- viability, T/C [17]: 80.5%
- viability, T/C [18]: 52.8%
- viability, T/C (second compound 0.1 µM, first compound 0.00316 µM): 65.5%
- viability, T/C (second compound 0.1 µM, first compound 0.01 µM): 123%
- viability, T/C [19]: 89.4%
- viability, T/C [20]: 75.4%
- viability, T/C [21]: 87.9%
- viability, T/C [22]: 69.2%
- viability, T/C (second compound 0.316 µM, first compound 0.00316 µM): 74.9%
- viability, T/C (second compound 0.316 µM, first compound 0.01 µM): 99.9%
- viability, T/C [23]: 100%
- viability, T/C [24]: 117%
- viability, T/C [25]: 82.6%
- viability, T/C [26]: 67%
- viability, T/C (second compound 1 µM, first compound 0.00316 µM): 90.8%
- viability, T/C (second compound 1 µM, first compound 0.01 µM): 96.9%
- viability, T/C [27]: 81.7%
- viability, T/C [28]: 88.4%
- viability, T/C [29]: 88.6%
- viability, T/C [30]: 65.6%

Second part, led by results:

- IC50 [1]: > 10000 nM
- IC50 [2]: > 10000 nM
- IC50 [3]: > 10000 nM
- IC50 [4]: > 10000 nM
- IC50 [5]: > 10000 nM
- IC50 [6]: > 10000 nM
Compound: Cc1nc(N2CCC3(CC2)COC(C)C3N)c(CO)nc1Sc1ccnc(N)c1Cl (stereo not drawn) + C=CC(=O)N1CCN(c2nc(OCC3CCCN3C)nc3c(F)c(-c4nc(N)cc(C)c4C(F)(F)F)c(Cl)cc23)C(C)C1
- viability, T/C [7]: 100%
- viability, T/C [8]: 83.6%
- viability, T/C [9]: 131%
- viability, T/C [10]: 86.9%
- viability, T/C (second compound 0.00316 µM, first compound 3.16 µM): 81.7%
- viability, T/C (second compound 0.00316 µM, first compound 10 µM): 102%
- viability, T/C [11]: 78.4%
- viability, T/C [12]: 80.5%
- viability, T/C [13]: 92.5%
- viability, T/C [14]: 92.5%
- viability, T/C (second compound 0.01 µM, first compound 3.16 µM): 104%
- viability, T/C (second compound 0.01 µM, first compound 10 µM): 98.3%
- viability, T/C [15]: 84.3%
- viability, T/C [16]: 107%
- viability, T/C [17]: 87.1%
- viability, T/C [18]: 73.6%
- viability, T/C (second compound 0.0316 µM, first compound 3.16 µM): 120%
- viability, T/C (second compound 0.0316 µM, first compound 10 µM): 99%
- viability, T/C [19]: 82.8%
- viability, T/C [20]: 64.9%
- viability, T/C [21]: 92.5%
- viability, T/C [22]: 87.3%
- viability, T/C (second compound 0.1 µM, first compound 3.16 µM): 81.2%
- viability, T/C (second compound 0.1 µM, first compound 10 µM): 82.9%
- viability, T/C [23]: 81%
- viability, T/C [24]: 89.2%
- viability, T/C [25]: 73.4%
- viability, T/C [26]: 81.7%
- viability, T/C (second compound 0.316 µM, first compound 3.16 µM): 86%
- viability, T/C (second compound 0.316 µM, first compound 10 µM): 87.1%
- viability, T/C [27]: 105%
- viability, T/C [28]: 76.5%
- viability, T/C [29]: 95.8%
- viability, T/C [30]: 108%
- viability, T/C (second compound 1 µM, first compound 3.16 µM): 88.1%
- viability, T/C (second compound 1 µM, first compound 10 µM): 105%

- IC50 (curve of compound): 3.6 nM [middle of 4 runs]
Compound: CC(C)n1nc(-c2ccc3oc(N)nc3c2)c2c(N)ncnc21
- viability, T/C (compound 0.00316 µM): 44.1% (2×) and 55.6% and 55.3%
- viability, T/C (compound 0.01 µM): 17% [middle of 4 runs]
- viability, T/C (compound 0.0316 µM): 8.74% [middle of 4 runs]
- viability, T/C (compound 0.1 µM): 7.93% [middle of 4 runs]
